Earlier results in patent US6921840B1 (The Trustees of the University of Pennsylvania, priority 1999, dated 2005).

Legend:
[1] = at 2 to 6 hr, Biegon et al. 1993; cited from earlier work
serotonin uptake (SERT) = target: T1, serotonin uptake (SERT) (Rattus norvegicus, UniProt P31652); conditions: taken from Ferris et al. 1995; read-out: IC50 for inhibition on substrate uptake, SERT; cited from earlier work
T1 construct: host or cells: rat brain synaptosomes

DAT = DAT (Rattus norvegicus, UniProt P23977); conditions: taken from Ferris et al. 1995; read-out: IC50 for inhibition on substrate uptake, DAT; cited from earlier work
[2] = target: T2, norepinephrine uptake (NET) (Rattus norvegicus, UniProt Q63380); conditions: cited from earlier work
T2 construct: host or cells: rat brain synaptosomes
T2 sequence (Q63380 1-617): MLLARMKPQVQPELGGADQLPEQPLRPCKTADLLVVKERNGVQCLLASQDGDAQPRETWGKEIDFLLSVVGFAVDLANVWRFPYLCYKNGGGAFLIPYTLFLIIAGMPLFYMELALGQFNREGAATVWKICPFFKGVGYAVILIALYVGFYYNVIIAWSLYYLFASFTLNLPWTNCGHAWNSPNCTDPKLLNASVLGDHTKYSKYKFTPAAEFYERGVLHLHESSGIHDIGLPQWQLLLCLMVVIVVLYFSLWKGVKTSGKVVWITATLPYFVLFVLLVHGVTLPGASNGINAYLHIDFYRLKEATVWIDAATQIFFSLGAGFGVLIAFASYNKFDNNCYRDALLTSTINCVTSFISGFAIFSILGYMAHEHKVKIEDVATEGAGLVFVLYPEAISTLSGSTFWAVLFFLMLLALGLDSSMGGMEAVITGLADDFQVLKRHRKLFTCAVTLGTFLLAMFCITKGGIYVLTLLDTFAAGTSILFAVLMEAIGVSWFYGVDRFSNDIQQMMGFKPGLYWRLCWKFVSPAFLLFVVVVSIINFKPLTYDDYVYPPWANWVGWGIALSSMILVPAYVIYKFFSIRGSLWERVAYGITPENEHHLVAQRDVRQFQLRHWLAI

DAT, sequence (P23977 whole entry): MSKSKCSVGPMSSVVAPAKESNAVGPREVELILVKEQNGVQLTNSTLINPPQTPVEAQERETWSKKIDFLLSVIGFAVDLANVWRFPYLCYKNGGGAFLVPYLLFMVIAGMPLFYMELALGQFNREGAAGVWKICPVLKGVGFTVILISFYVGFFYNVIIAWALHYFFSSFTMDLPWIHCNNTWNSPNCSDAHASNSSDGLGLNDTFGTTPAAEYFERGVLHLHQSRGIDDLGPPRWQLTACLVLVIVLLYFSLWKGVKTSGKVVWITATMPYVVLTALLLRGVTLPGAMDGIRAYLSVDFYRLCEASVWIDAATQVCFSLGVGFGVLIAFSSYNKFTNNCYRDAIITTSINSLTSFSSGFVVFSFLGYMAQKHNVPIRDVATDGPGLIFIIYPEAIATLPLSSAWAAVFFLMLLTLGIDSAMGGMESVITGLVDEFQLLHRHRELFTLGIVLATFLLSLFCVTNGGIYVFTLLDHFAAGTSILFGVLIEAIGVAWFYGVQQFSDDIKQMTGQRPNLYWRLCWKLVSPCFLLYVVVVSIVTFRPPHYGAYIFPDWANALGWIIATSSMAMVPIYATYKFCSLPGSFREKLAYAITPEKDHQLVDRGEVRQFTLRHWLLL
T1 sequence (P31652 whole entry): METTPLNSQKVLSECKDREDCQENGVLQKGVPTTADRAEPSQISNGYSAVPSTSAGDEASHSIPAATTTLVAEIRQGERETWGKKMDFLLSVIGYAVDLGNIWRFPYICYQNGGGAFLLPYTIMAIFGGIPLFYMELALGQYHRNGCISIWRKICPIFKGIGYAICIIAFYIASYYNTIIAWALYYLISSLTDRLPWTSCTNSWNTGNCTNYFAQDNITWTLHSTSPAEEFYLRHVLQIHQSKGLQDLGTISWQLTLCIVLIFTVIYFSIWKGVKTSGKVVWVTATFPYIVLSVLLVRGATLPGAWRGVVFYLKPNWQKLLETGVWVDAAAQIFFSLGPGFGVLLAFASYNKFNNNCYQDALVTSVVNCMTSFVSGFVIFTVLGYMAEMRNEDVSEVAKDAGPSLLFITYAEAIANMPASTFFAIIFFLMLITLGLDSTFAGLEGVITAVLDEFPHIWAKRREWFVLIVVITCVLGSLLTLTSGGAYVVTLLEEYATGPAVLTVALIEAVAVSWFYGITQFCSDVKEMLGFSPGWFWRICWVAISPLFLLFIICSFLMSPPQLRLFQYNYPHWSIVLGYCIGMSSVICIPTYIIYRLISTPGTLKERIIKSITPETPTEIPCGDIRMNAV

Row | SMILES | specific regional binding ratio, hypothalamus [1] | IC50 (serotonin uptake (SERT)) [nM] | IC50 (DAT) [nM] | Ki ([2]; rat brain synaptosomes) [nM] | IC50 ([2]; taken from Ferris et al. 1995, read-out: IC50 for inhibition on substrate uptake, NET) [nM]
1 | O=[N+]([O-])c1ccc2nc(N3CCNCC3)ccc2c1I [[^123I]5-I-6-NO2-quipazine, 5-iodo-6-nitroquipazine] | 4.0 | – | – | – | –
2 | CN(C)Cc1ccccc1Sc1ccc(Cl)cc1CO [403U76, 5-chloro-2-((2-((dimethyl-amino)methyl)phenyl)thio)benzyl alcohol] | – | 2.1 ± 0.4 | > 1000 | 55 | 55 ± 10
